Test results from ChEMBL document CHEMBL1128956, “Irreversible inhibitions of serine proteases by peptidyl allylic halide derivatives” (Bioorg Med Chem Lett, 1996).

Experiments:
[1] = target: T1, Chymotrypsin-like elastase family member 2A (Sus scrofa) (UniProt P08419); assay: Compound was tested for inhibitory activity toward porcine pancreatic elastase.
T1 sequence (whole entry): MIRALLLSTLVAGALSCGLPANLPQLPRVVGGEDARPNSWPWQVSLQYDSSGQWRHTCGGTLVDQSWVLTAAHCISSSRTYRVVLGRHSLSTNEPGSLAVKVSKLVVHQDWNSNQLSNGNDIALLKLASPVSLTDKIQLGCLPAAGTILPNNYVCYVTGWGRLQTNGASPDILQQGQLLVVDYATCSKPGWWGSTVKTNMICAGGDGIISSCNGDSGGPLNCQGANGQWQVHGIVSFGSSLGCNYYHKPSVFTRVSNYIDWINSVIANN

[2] = target: Chymotrypsinogen A (Bos taurus) (UniProt P00766); assay: Compound was tested for inhibitory activity towards alpha-chymotrypsin expressed as second order rate constant values
[3] = target: T1, Chymotrypsin-like elastase family member 2A (Sus scrofa); assay: Compound was tested for inhibitory activity toward porcine pancreatic elastase expressed as second order rate constant values: No inactivation
[4] = target: Chymotrypsinogen A (Bos taurus) (UniProt P00766); assay: Compound was tested for inhibitory activity against alpha-chymotrypsin
[5] = target: Chymotrypsinogen A (Bos taurus) (UniProt P00766); assay: Compound was tested for inhibitory activity against alpha-chymotrypsin
[6] = target: Chymotrypsinogen A (Bos taurus) (UniProt P00766); assay: Compound was tested for inhibitory activity towards alpha-chymotrypsin expressed as second order rate constant values
[7] = target: Chymotrypsinogen A (Bos taurus) (UniProt P00766); assay: Compound was tested for inhibitory activity towards alpha-chymotrypsin expressed as second order rate constant values; No inactivation

O=C(CNC(=O)OCc1ccccc1)N[C@H](/C=C/CBr)Cc1ccccc1
Concentration [1]: 25 µM | k obs / concentration [2]: 215 M⁻¹ s⁻¹ | k obs / concentration [3]: No inactivation | Concentration [4]: 25 µM

O=C(CNC(=O)OCc1ccccc1)N[C@H](/C=C/CCl)Cc1ccccc1
Concentration [1]: 600 µM | k obs / concentration [2]: 12 M⁻¹ s⁻¹ | k obs / concentration [3]: No inactivation | Concentration [4]: 28 µM

CC(=O)N[C@H](/C=C/CCl)Cc1ccccc1
Concentration [5]: 0.476 mM | k obs / concentration [6]: 0.8 M⁻¹ s⁻¹

O=C(CNC(=O)OCc1ccccc1)N[C@H](/C=C/CF)Cc1ccccc1
k obs / concentration [7]: No inactivation | Concentration [5]: 1.05 mM

CC(=O)N[C@H](/C=C/CF)Cc1ccccc1
k obs / concentration [7]: No inactivation | Concentration [5]: 13.5 mM

O=C(CNC(=O)OCc1ccccc1)NCC(=O)N[C@H](/C=C/CBr)Cc1ccccc1
Concentration [1]: 15 µM | k obs / concentration [2]: 1240 M⁻¹ s⁻¹ | k obs / concentration [3]: No inactivation | Concentration [4]: 7 µM

O=C(CNC(=O)OCc1ccccc1)NCC(=O)N[C@H](/C=C/CF)Cc1ccccc1
k obs / concentration [7]: No inactivation | Concentration [5]: 4.4 mM

CC(=O)N[C@H](/C=C/CBr)Cc1ccccc1
Concentration [1]: 101 µM | k obs / concentration [2]: 14 M⁻¹ s⁻¹ | k obs / concentration [3]: No inactivation | Concentration [4]: 101 µM

O=C(CNC(=O)OCc1ccccc1)NCC(=O)N[C@H](/C=C/CCl)Cc1ccccc1
Concentration [1]: 97 µM | k obs / concentration [2]: 61 M⁻¹ s⁻¹ | k obs / concentration [3]: No inactivation | Concentration [4]: 17 µM
